Series [1] has as its target T1, type-1 cholecystokinin (CCK1) receptor (Homo sapiens, UniProt P32238).
T1 sequence (P32238 1-428): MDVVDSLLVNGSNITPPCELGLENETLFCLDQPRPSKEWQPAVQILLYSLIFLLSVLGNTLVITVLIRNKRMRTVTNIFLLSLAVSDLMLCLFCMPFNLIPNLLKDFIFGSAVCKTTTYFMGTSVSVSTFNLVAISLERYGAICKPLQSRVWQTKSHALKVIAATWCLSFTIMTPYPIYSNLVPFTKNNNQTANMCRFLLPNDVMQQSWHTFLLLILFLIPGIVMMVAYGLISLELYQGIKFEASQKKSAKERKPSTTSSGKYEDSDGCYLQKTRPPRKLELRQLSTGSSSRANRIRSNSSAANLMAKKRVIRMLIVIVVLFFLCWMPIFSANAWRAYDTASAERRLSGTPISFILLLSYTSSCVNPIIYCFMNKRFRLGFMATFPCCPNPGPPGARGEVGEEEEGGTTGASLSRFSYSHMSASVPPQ
The conditions noted are these: cited from earlier work.

Series [2] in a line: Compressibility of the powder (Carr index, USP 24/NF19). It counts as physicochemical. The conditions noted are these: 100 g powder, 250 ml graduated cylinder, 2000 strokes; percentage values 5-15 excellent, >33 very poor. The method, then: a) measurement of the compressibility of the powder which is expressed by the following formula (Carr index; (according to USP 24/NF19, p. 1914): [formula] where Vo and Vf are respectively the volumes occupied by a predetermined weighed quantity of powder (generally 100 g) placed in a 250 ml graduated cylinder and measured before and after a certain number of mechanical strokes (generally 2000 strokes); the smaller this index is the better will be the behaviour of the powder upon compression; for example, percentage values between 5-15 are considered excellent, whereas values greater than 33 are considered very poor (see J. I. Wells—Pharmaceutical Preformulation; Ellis H. Lim; J. Wiley and Sons Ed. p.

Series [3] is described as follows: Particle size distribution by laser light scattering (Malvern Master Sizer 2000, wet method). It counts as physicochemical. The settings on record: for span index: (D90-D10)/D50 type width of distribution; for D50 (mean size measurement) / percentage of particles <10 μm (fine particles): wet method, H2O with 0.5% Tween 20, sonication 60 sec. The method, then: The PSD is determined by the “laser light scattering” technique, that is, the scattering (diffraction) which a high-energy, monochromatic light beam (a laser beam) undergoes when it encounters a particle of a particular size on its optical path. The powder to be examined may be prepared by various techniques, both dry and wet; in the latter case, the selection of the dispersant should take account of the chemical/physical properties of the raw material to be analyzed. Once the sample has been analyzed, the results can be given as histograms in which each individual column represents a band of a certain width (in microns), whereas the height represents the percentage of sample present in that band. The principal statistical distribution values calculated by the software of this apparatus are, amongst other things, the D50, that is, the size in microns for which 50% of the sample is smaller and 50% is larger. Another important measurement is the “span”, which is the measurement of the width of the distribution. This width is calculated by the following ratio: [formula] where D90 and D10 have meanings analogous to that of D50. The smaller this “span” index is, the more reliable the particle distribution of the sample examined will be. The apparatus used for the determination of the PSD was a Malvern Master Sizer 2000 and the method used was the wet method with the use of H2O as the dispersant with a concentration of 0.5% of Tween 20 as surfactant. The measurements were taken at a concentration of dexloxiglumide of about 0.06-0.08% after ultrasound sonication for 60 sec which enabled the accumulations to be broken up without breaking the crystals. Note: The particle sizes given both in the text and in the claims are not absolute quantities but are relative to the measurement method used (in this case the Malvern Master Sizer 2000 instrument with the method described in Example 1).

Series [4] in a line: Morphological analysis of the crystals by microscopy (300x). The conditions noted are these: photographs, 300x magnification. In kind it is physicochemical. The method, then: Morphological analysis performed by microscopic analysis of the crystals obtained by crystallization from ethanol/H2O and isopropyl ether, respectively, also confirms what had already been seen with by particle-size analysis by laser-beam diffraction.
It can be seen from a comparison of the two images of FIG. 2 that the product crystallized from isopropyl ether has crystals with well-defined, lamellar shapes with an average diameter of about 70-100 μm, whereas the other lot has crystals of irregular shape with very many smaller aggregated crystals.

With `CCCCCN(CCCOC)C(=O)[C@@H](CCC(=O)O)NC(=O)c1ccc(Cl)c(Cl)c1` [Dexloxiglumide, (R)-4-[(3,4-dichlorobenzoyl)amino]-5-[(3-methoxypropyl)-pentylamino]-5-oxo-pentanoic acid], the “antagonistic activity towards CCK1 receptor” value in series [1] is listed as “potent antagonistic activity”.
Consider `CCCCCN(CCCOC)C(=O)[C@@H](CCC(=O)O)NC(=O)c1ccc(Cl)c(Cl)c1` [dexloxiglumide obtained by crystallization from H2O/ethanol ] [(R)-4-[(3,4-dichlorobenzoyl)amino]-5-[(3-methoxypropyl)-pentylamino]-5-oxo-pentanoic acid, reference compound], for which the Carr index in series [2] is more than 33. For the same compound, in series [3], the “shape of particle distribution” value is recorded as “bimodal”, the span index is recorded as 4.668, the “D50 (mean size measurement)” value is on record as 23.6 μm and the “percentage of particles <10 μm (fine particles)” value is 29.5%.
As for `CCCCCN(CCCOC)C(=O)[C@@H](CCC(=O)O)NC(=O)c1ccc(Cl)c(Cl)c1` [lot PP9282/43851, (R)-4-[(3,4-dichlorobenzoyl)amino]-5-[(3-methoxypropyl)-pentylamino]-5-oxo-pentanoic acid], the Carr index result in series [2] is recorded as “about 12”. Besides, in series [4], the “average diameter of crystals” value is on record as 70-100 μm. In addition, in series [3], the “shape of particle distribution” value is “practically unimodal”, the span index is recorded as 1.608, the “D50 (mean size measurement)” value amounted to 97.3 μm and the “percentage of particles <10 μm (fine particles)” value turned out to be 4.23%.

These data come from patent US7662994B2, “Method for the preparation of crystalline dexloxiglumide and products obtained” (Rottapharm S.p.A., priority 2003, dated 2010).
